From patent US20260070922A1, “PYRAZOLE AND IMIDAZOLE DERIVATIVES AS DUAL OREXIN AND KAPPA-OPIOID RECEPTORS MODULATORS COMPOSITION, METHODS FOR TREATING NEUROLOGICAL AND PSYCHIATRIC DISORDERS” (HAGER BIOSCIENCES, LLC, priority 2022, published 2026)
pIC50, pKi: −log10 of the molar value.

What was measured:
[1] = biological target: T1, human orexin-2 receptor (OX2R) (Homo sapiens, UniProt O43614); experiment: In vitro orexin antagonism assay: intracellular calcium measurement (FLIPR), orexin-A 3 nM as agonist; type: cell-based; conditions: for inhibition at 1 µM: read-out: OX2R, % Inh. @ 1 uM; for pIC50: first value of IC50/Kb cell; for Kb: second value of IC50/Kb cell
T1 construct: expressed in transfected cells; host or cells: CHO cells (G418 selection)
T1 sequence (O43614 1-444): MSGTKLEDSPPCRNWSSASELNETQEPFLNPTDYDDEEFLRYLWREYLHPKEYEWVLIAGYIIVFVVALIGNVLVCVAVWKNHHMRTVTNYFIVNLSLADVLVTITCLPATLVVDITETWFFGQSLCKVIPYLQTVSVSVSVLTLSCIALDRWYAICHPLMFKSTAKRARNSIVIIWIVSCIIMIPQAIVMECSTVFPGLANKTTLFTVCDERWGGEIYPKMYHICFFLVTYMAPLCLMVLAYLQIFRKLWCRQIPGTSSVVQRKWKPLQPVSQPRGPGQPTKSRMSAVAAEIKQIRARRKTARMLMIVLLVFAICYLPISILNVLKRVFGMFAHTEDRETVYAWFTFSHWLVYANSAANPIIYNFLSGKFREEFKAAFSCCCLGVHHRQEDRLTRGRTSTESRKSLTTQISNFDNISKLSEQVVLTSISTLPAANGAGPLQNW
Procedure, shortened: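 CHO cells stably expressing human OX1R or OX2R, loaded with fluo-4 AM (3 μM, 5 mM probenecid) for 50 min at 37 °C, then 30 min at RT. Antagonist preincubated 120 min before 3 nM orexin-A; FLIPR fluorescence peak height vs vehicle gives IC50, possibly normalized to on-plate reference; geometric mean of repeats.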

[2] = biological target: T2, human k-opioid receptor (kOR) (Homo sapiens, UniProt P41145); experiment: Human k-opioid (KOP) receptor (agonist radioligand [3H]U-69593) binding assay, transfected RBL cell membranes; conditions: for inhibition at 1 µM: read-out: KOR % Inh. @ 1 uM; for pIC50: first value of IC50/Ki cell; for pKi: second value of IC50/Ki cell
T2 construct: expressed in transfected cells; host or cells: RBL cells (membrane homogenates)
T2 sequence (P41145 whole entry): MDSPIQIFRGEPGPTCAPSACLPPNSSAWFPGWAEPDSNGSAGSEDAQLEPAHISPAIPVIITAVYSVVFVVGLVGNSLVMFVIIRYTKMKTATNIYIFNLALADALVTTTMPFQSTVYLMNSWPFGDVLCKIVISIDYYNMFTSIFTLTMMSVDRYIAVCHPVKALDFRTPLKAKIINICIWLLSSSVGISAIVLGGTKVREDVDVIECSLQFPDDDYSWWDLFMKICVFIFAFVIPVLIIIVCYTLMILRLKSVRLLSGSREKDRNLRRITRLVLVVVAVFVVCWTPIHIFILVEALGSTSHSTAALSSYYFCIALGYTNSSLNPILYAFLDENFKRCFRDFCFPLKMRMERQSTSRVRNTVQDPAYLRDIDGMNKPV
Method: Human k-Opioid (KOP) Receptor (Agonist Radioligand) Binding Assay
Purpose: Evaluation of the affinity of compounds for the human k-opioid receptor in transfected RBL cells determined in a radioligand binding assay.
Experimental protocol: Cell membrane homogenates (about 80 μg protein) are incubated for 60 min at 22° C. with 0.5 nM [3H]U-69593 in the absence or presence of the test compound in a buffer containing 50 mM Tris-HCl (pH 7.4), 10 mM MgCl2 and 1 mM EDTA. Nonspecific binding is determined in the presence of 10 μM naloxone. Following incubation, the samples are filtered rapidly under vacuum through glass fiber filters ([…], Packard) presoaked with 0.3% PEI and rinsed several times with ice-cold 50 mM Tris-HCl using a 96-sample cell harvester (Unifilter, Packard). The filters are dried then counted for radioactivity in a scintillation counter (Topcount, Packard) using a scintillation cocktail (Microscint 0, Packard). The results are expressed as a percent inhibition of the control radioligand specific binding. The standard reference compound is U-50488, which is tested in each experiment at several concentrations to obtain a competition curve from which its IC50 is calculated.

[3] = biological target: T3, Orexin type 1 (OX1R) receptor (Homo sapiens, UniProt O43613); experiment: In vitro orexin antagonism assay: intracellular calcium measurement (FLIPR), orexin-A 3 nM as agonist; type: cell-based; conditions: for pIC50: first value of IC50/Kb cell; for inhibition at 1 µM: read-out: OX1R, % Inh. @ 1 uM; for Kb: second value of IC50/Kb cell
T3 construct: expressed in transfected cells; host or cells: CHO cells (G418 selection)
T3 sequence (O43613 1-425): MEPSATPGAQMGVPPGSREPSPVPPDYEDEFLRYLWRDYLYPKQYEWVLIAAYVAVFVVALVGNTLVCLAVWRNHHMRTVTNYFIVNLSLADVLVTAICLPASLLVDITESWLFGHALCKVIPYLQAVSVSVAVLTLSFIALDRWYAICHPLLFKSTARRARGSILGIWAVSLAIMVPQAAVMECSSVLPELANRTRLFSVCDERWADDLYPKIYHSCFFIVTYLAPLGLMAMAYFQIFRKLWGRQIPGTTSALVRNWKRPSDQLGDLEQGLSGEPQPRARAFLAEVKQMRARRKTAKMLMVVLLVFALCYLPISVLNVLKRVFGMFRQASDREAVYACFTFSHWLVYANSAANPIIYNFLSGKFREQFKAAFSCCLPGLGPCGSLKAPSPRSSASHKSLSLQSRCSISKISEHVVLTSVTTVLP
Procedure, shortened: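 CHO cells expressing the human orexin receptor were loaded with 3 μM fluo-4 AM plus 5 mM probenecid, then exposed to antagonist for 120 min before 3 nM orexin-A (final) was added on a FLIPR.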

SMILES | inhibition at 1 µM [1] [%] | inhibition at 1 µM [2] [%] | pIC50 [3] | inhibition at 1 µM [3] [%] | Kb [3] [nM] | OX2R, % Inh. @ 1 uM [1] [%] | pIC50 [1] | Kb [1] [nM] | KOR % Inh. @ 1 uM [2] [%] | pIC50 [2] | pKi [2] | OX1R, % Inh. @ 1 uM [3] [%]
O=C(c1c(-c2ccccc2)nn2c1COCC2)N1CCCC[C@H]1COc1ccc(C(F)(F)F)cn1 [Example 46] | 25.3 | 38 | 8.15 | 94.8 | 1 | – | – | – | – | – | – | –
O=C(c1c(-c2ccc(F)cc2)nn2ccccc12)N1CCC[C@H]1Cn1ccc(-c2ccc(F)cc2)n1 [Example 55] | – | – | 8.30 | – | 1 | 93 | 7.48 | 5 | 66 | 6.32 | 6.59 | 100
O=C(c1c(-c2ccc(F)cc2)nn2ccccc12)N1CCC[C@H]1Cn1ccc(-c2ccc(C(F)(F)F)cc2)n1 [Example 56] | – | – | 6.24 | – | 121 | 12 | – | – | 76 | 6.35 | 6.60 | 59
O=C(c1c(-c2ccccc2)nn2c1COCC2)N1CCC[C@H]1Cn1ccc(-c2ccc(F)cc2)n1 [Example 57] | – | – | 7.19 | – | 14 | 52 | 6.11 | 107 | 76 | 6.36 | 6.62 | 73
O=C(c1c(-c2ccccc2)nn2ccccc12)N1CCC[C@H]1Cn1ccc(-c2ccc(F)cc2)n1 [Example 59] | – | – | 8.40 | – | 0.7 | 99 | 7.96 | 2 | 56 | 6.33 | 6.59 | 91
O=C(c1c(-c2ccccc2)nn2ccccc12)N1CCC[C@H]1Cn1ccc(-c2ccc(C(F)(F)F)cc2)n1 [Example 60] | – | – | 6.97 | – | 22 | 37 | – | – | 63 | 6.41 | 6.68 | 78
O=C(c1c(-c2ccc(F)cc2)nc2ccccn12)N1CCC[C@H]1Cn1ccc(-c2ccc(F)cc2)n1 [Example 61] | – | – | 7.54 | – | 6 | 73 | 7.12 | 10 | 74 | 6.55 | 6.82 | 85
O=C(c1c(-c2ccccc2F)nc2ccccn12)N1CCC[C@H]1Cn1ccc(-c2ccc(F)cc2)n1 [Example 62] | – | – | 8.22 | – | 1 | 85.23 | 7.59 | 4 | 79 | 6.70 | 6.96 | 96.96
O=C(c1c(-c2ccccc2F)nn2ccccc12)N1CCC[C@H]1Cn1ccc(-c2ccc(F)cc2)n1 [Example 63] | – | – | 8.40 | – | 0.8 | 100 | 8.22 | 0.9 | 75 | 3.55 | – | 98
O=C(c1c(-c2ccccc2F)nn2ccccc12)N1CCC[C@H]1COc1ccc(C(F)(F)F)cn1 [Example 64] | 67 | 37 | 7.96 | 81 | 2 | – | 6.56 | 38 | – | – | – | –
O=C(c1c(-c2ccccc2F)nc2ccccn12)N1CCC[C@H]1COc1ccc(C(F)(F)F)cn1 [Example 65] | 41 | 11 | 7.28 | 64 | 11 | – | – | – | – | – | – | –
O=C(c1c(-c2ccccc2F)nn2c1COCC2)N1CCC[C@H]1Cn1ccc(-c2ccc(F)cc2)n1 [Example 66] | – | – | 7.48 | – | 7 | 68 | 6.88 | 18 | 77 | 6.66 | 6.92 | 84
O=C(c1c(-c2ccccc2F)nn2ccccc12)N1CCC[C@H]1Cn1ccc(-c2ccccn2)n1 [Example 67] | 74 | 27 | 7.89 | 100 | 3 | – | 7.70 | 4 | – | – | – | –
O=C(c1c(-c2ccccc2F)nn2ccccc12)N1CCC[C@H]1Cn1cc(-c2ccccn2)cn1 [Example 68] | 64 | 48 | 7.33 | 82 | 10 | – | 6.77 | 30 | – | – | – | –
O=C(c1c(-c2ccccc2)nc2ccc(F)cn12)N1CCC[C@H]1Cn1ccc(-c2ccccn2)n1 [Example 73] | 48 | 37 | 8.05 | 82 | 2 | – | – | – | – | – | – | –
O=C(c1nn2c(c1-c1ccccn1)CCOC2)N1CCC[C@H]1Cc1nc(-c2ccccn2)no1 [Example 221] | 0 | – | – | 56 | – | – | – | – | – | – | – | –
O=C(c1nn2c(c1-c1ccccn1)CCOC2)N1CCC[C@H]1Cc1nc(-c2ccc(F)cn2)no1 [Example 222] | 12 | – | – | 55 | – | – | – | – | – | – | – | –
O=C(c1nn2c(c1-c1ccccn1)COCC2)N1CCC[C@H]1COc1ccc(C(F)(F)F)cn1 [Example 223] | – | – | 8.30 | – | 1 | 21 | – | – | – | – | – | 97
